Data published in patent US8211885B2, “Cyclic indole-3-carboxamides, their preparation and their use as pharmaceuticals” (Sanofi-Aventis, priority 2008, dated 2012).

molecular target: T1, Recombinant human renin (Homo sapiens, UniProt P00797); assay: Inhibition of renin (fluorogenic peptide substrate); type: biochemical; settings: not given
T1 construct: purchased Cayman 10006217
T1 sequence (P00797 67-406): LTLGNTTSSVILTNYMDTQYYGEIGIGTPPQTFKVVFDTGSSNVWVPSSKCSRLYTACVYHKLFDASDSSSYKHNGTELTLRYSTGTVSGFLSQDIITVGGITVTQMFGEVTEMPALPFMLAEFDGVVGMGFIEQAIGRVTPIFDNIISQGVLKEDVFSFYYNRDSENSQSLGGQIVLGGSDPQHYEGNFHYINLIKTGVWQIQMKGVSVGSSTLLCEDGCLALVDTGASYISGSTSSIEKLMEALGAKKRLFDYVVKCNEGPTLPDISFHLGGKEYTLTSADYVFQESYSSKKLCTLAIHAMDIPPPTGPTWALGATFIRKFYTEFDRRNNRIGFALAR
Procedure: Recombinant human renin (Cayman, no. 10006217) at a concentration of 5 nM was incubated with the test compounds at various concentrations and the synthetic substrate Dabcyl-γ-Abu-[…]EDANS (Bachem, no. M-2050; Dabcyl means the 4-(4-dimethylamino-phenylazo)-benzoyl group and EDANS means the amide with 5-[(2-aminoethyl)amino]-naphthalene-1-sulfonic acid) at a concentration of 10 μM for 2 h at room temperature in 0.05 M Tris buffer (pH 8) containing 0.1 M NaCl, 2.5 mM EDTA and 1.25 mg/ml bovine serum albumin. The increase in fluorescence, which is due to fluorescence resonance energy transfer, was recorded at an excitation wavelength of 330 nm and an emission wavelength of 485 nm in a microplate spectrofluorometer. Inhibitory concentrations IC50 were calculated from the percentage of inhibition of renin activity as a function of the concentration of the test compound.

SMILES | IC50
CN(c1ccccc1)c1c(C(=O)N2CCNCC2)c2ccccc2n1-c1ccccc1 [Example 3, [2-(Methyl-phenyl-amino)-1-phenyl-1H-indol-3-yl]-piperazin-1-yl-methanone] | 3200 nM

same assay, conditions: renin 5 nM, substrate Dabcyl-γ-Abu-[…]-EDANS 10 μM, 2 h room temperature, Tris buffer pH 8; compounds tested as the obtained salt; read-out: IC50 values for inhibition of renin (fluorogenic peptide substrate)

SMILES | IC50
O=C(c1c(Oc2ccccc2)n(-c2ccccc2)c2ccccc12)N1CCCNCC1 [Example 5, Perhydro-1,4-diazepin-1-yl-(2-phenoxy-1-phenyl-1H-indol-3-yl)-methanone] | 3400 nM
Cc1ccc(F)cc1Oc1c(C(=O)N2CCNCC2)c2ccccc2n1C1C=CCCC1 (centres unmarked) [Example 22, [1-Cyclohex-2-enyl-2-(5-fluoro-2-methyl-phenoxy)-1H-indol-3-yl]-piperazin-1-yl-methanone] | 7.2 nM
O=C(c1c(Oc2ccccc2)n(-c2ccccc2)c2ccccc12)N1CCNC(CO)C1 (centres unmarked) [Example 24, (3-Hydroxymethyl-piperazin-1-yl)-(2-phenoxy-1-phenyl-1H-indol-3-yl)-methanone] | 1600 nM
Cc1ccc(F)cc1Oc1c(C(=O)N2CCNCC2)c2ccc(OCC(=O)O)cc2n1-c1ccccc1 [Example 30, [2-(5-Fluoro-2-methyl-phenoxy)-1-phenyl-3-(piperazine-1-carbonyl)-1H-indol-6-yloxy]-acetic acid] | 130 nM
Cc1ccccc1Sc1c(C(=O)N2CCNCC2)c2ccccc2n1-c1ccccc1 [Example 108] | 71 nM
Cc1ccccc1Cc1c(C(=O)N2CCNCC2)c2ccccc2n1-c1ccsc1 [Example 113] | 230 nM
O=C(c1c(Oc2ccccc2)n(-c2ccccc2)c2ccccc12)N1CCNCC1Cc1ccccc1 (centres unmarked) [Example 126] | 4500 nM
